Values after ≈ are worked out from the molar mass of the structure shown.

This passage reports solubility results from patent publication US10039833B2, “Drug delivery system to increase bioavailability” (OHIO STATE INNOVATION FOUNDATION, priority 2013, dated 2018).

A short description of this data set: physchem.

Take `NCC(=O)Nc1ccc(-n2nc(C(F)(F)F)cc2-c2ccc3c(ccc4ccccc43)c2)cc1` [AR-12]: the solubility is 0.18 µg/mL (≈ 0.391 µM) (USP biphthalate buffer, pH 3.5, aqueous buffer); 0.07 µg/mL (≈ 0.152 µM) (USP biphthalate buffer, pH 5, aqueous buffer); 65.3 µg/mL (≈ 142 µM) (USP chloride buffer, pH 1.2, simulated gastric fluid); 0.06 µg/mL (≈ 0.13 µM) (USP phosphate buffer, pH 7.4, aqueous buffer).

Usually solubility stands for the concentration that dissolves in the medium under given conditions. A high value points to much dissolved substance.
